In patent US4816447A, “Anti-viral guanine compounds” (priority 1984, dated 1989):
Read-outs that look alike come from different tables or passages of the source.

Key:
[1] = tested on: Herpes simplex virus type 2; assay: Tube dilution assay, viral cytopathology of HSV-2 in rabbit kidney cell cultures; conditions: Human alphaherpesvirus 2, in Oryctolagus cuniculus, read-out: Minimum Effective Concentration
[2] = tested on: Herpes simplex virus type 1; assay: Tube dilution assay, viral cytopathology of HSV-1 in rabbit kidney cell cultures; conditions: Human alphaherpesvirus 1, in Oryctolagus cuniculus
Varicella-Zoster virus = assay: Varicella-Zoster plaque reduction assay on human MRC-5 monolayers; format: cell-based, Varicella-Zoster (Strain KMcC); human MRC-5 cells; conditions: for minimal effective concentration: Human alphaherpesvirus 3, MRC5, Strain KMcC, plaque reduction, read-out: Minimum Effective Concentration; for comparative activity: compound of formula II vs acycloguanosine
Excerpt: ^b Plaque reduction assay on human MRC5 cell monolayers.

[3] = tested on: Herpes simplex virus type 1; assay: Intraperitoneal Herpes simplex type 1 infection in mice, oral treatment (Table XI); format: in vivo, Herpes simplex type 1; ICR/Ha mice; conditions: for Percent Survival: at 13 days
Excerpt: ICR/Ha mice were infected as described in Example 36. […] These animals served as toxicity controls.

[4] = tested on: guanosine monophosphate kinase and extract of HSV1-infected HeLa cells; format: biochemical; conditions: gmp kinase, 4 h
Method: To the rest of the incubation mixtures were now added 0.04 units of guanosine monophosphate kinase and 20 μl of an extract of HSV1-infectedHeLa cells [The cells were infected with the virus at a multiplicity of 10 and harvested 8 hours later; they were suspended in a solution containing 0.35M KH2 PO4, pH 7.5, 0.5 mM dithiothreitol, 0.2% polyoxyethylene(9)octylphenol (Nonidet P-40), 14% glycerol at 50 mg/ml and after 30 minutes at 4° were centrifuged at […]; the supernatant liquid was the crude extract.] Incubation was continued at 30° for 4 more hours, after which samples were analyzed by HPLC and the amount of the triphosphate derivatives of each compound determined by integration of the area under the respective chromatographic peak.

[5] = tested on: Herpes simplex virus type I (HSV-1), strain Schooler; assay: Treatment of Herpes simplex virus infection in mice, repeat experiment (Table III); format: in vivo, HSV-1; ICR/Ha mice; conditions: for Percent Survival: at 15 days
Method: Twenty gram ICR/Ha mice were injected intraperitoneally (ip) with 0.5 ml of a 10^-5 dilution of a stock preparation of Herpes simplex virus type I (HSV-1), strain Schooler. This virus challenge infected each animal with approximately 100 LD50. […] The placebo group was composed of 45 animals. All compounds were solubilized in physiological saline, pH 11.5.

[6] = tested on: Herpes simplex virus type 2 (Strain Curtis); assay: Vaginal Herpes simplex virus type 2 infection in mice, oral treatment (Table XII); format: in vivo, Herpes simplex virus type 2; ICR/Ha female mice; conditions: for Percent Survival: at 19 days; for number of days to infection vs placebo: 50 mg/kg and 12.5 mg/kg
Method: Groups of 10 animals were treated twice daily for ten days by oral gavage using acycloquanosine or the compound of formula II at final daily doses of 50, 12.5, 3.1, 0.8 or 0.2 mg/kg starting immediately following infection. The average number of days to infection and the average days of survival were determined for each group and compared to an infected, placebo-treated group.

HSV-2 = assay: Vaginal HSV-2 infection in mice, oral treatment (Table VI); format: in vivo, HSV-2; ICR/Ha mice; conditions: for minimal effective dose: Human alphaherpesvirus 2, vaginal infection, oral treatment, read-out: Min. Effective Dose
HSV-1 PAA ®1 = assay: microbe, parasite or virus in culture; conditions: Human alphaherpesvirus 1, read-out: ED50
HSV-1 383R1 = format: cell-based, HSV-1 (383R1); NIH 3T3 mouse cells; conditions: for EC50: Human alphaherpesvirus 1, in Mus musculus
HSV-1 WT = assay: 50% plaque reduction of HSV-1 wild type in 3T3 TK- and 3T3 TK-/TK+HSV cells (Table VIII); conditions: for EC50: Human alphaherpesvirus 1, in Mus musculus, read-out: Antiviral Concentration, 50% plaque reduction
HSV-1 (383R1) = assay: Protection of mice against intraperitoneal infection with HSV-1 (383R1) (Table IX); format: in vivo, HSV-1; mice; conditions: for Mean Survival Time (± SD): HSV-1 (383R1), s.c. twice daily, 4 days; for efficacy against HSV-1 (383R1) relative to wild type HSV-1: mouse, in vivo
Method: 1. […] Groups of mice infected intraperitoneally with increasing doses of HSV-1 or HSV-1 (383R1) were treated twice daily subcutaneously for 4 days with either the Cyclic Monophosphate or the compound of Formula II. Mean survival times of treated mice were compared.

HSV-2 TS6 = assay: microbe, parasite or virus in culture; conditions: Human alphaherpesvirus 2, read-out: ED50
HSV-1 = assay: In vitro activity against HSV-1 with and without added thymidine; format: cell-based; conditions: for EC50: read-out: ED50 (the source's name)
[7] = read-out: Minimum Effective Concentration, Strain Schooler
[8] = read-out: Antiviral Concentration, 50% plaque reduction, HSV-1 383R1, 3T3 TK^- /TK^+HSV cells
[9] = read-out: Antiviral Concentration, 50% plaque reduction, HSV-1 383R1, 3T3 TK^- cells
[10] = Human alphaherpesvirus 1, absence of thymidine
[11] = Human alphaherpesvirus 1, presence of thymidine (20 μg/ml)

Nc1nc2c(ncn2COCCO)c(=O)[nH]1 [Acycloguanosine, 9-(2-hydroxyethoxymethyl)guanine, reference compound]
minimal effective concentration [1]: 1 to 3 µg/mL | minimal effective concentration [2, 7]: 1 to 3 µg/mL | minimal effective concentration (Varicella-Zoster virus): 1 to 2 µg/mL | comparative activity (Varicella-Zoster virus): equally active | Avg. Survival Time ([3]; 3.1 mg/kg/day oral): 6.3 days | Percent Survival ([3]; 3.1 mg/kg/day oral): 0% | Avg. Survival Time ([3]; 12.5 mg/kg/day oral): 6.6 days | Percent Survival ([3]; 12.5 mg/kg/day oral): 0% | Avg. Survival Time ([3]; 50 mg/kg/day oral): 8.2 days | Percent Survival ([3]; 50 mg/kg/day oral): 20% | Avg. Survival Time ([3]; 100 mg/kg/day oral): 11.4 days | Percent Survival ([3]; 100 mg/kg/day oral): 60% | survival vs placebo ([3]; all treated groups): none of the acycloquanosine-treated groups showed enhanced survival | extension of survival time vs placebo ([3]; only at 100 and 50 mg/kg daily): statistically significant extension of survival time | converted to the triphosphate [4]: 31% | Avg. Survival Time ([5]; 12.5 mg/kg/day s.c.): 7.0 days | Percent Survival ([5]; 12.5 mg/kg/day s.c.): 6% | Avg. Survival Time ([5]; 50 mg/kg/day s.c.): 7.8 days | Percent Survival ([5]; 50 mg/kg/day s.c.): 0% | Avg. Survival Time ([5]; 100 mg/kg/day s.c.): 7.8 days | Percent Survival ([5]; 100 mg/kg/day s.c.): 10% | Avg. Survival Time ([6]; 0.2 mg/kg/day oral): 8.8 days | Percent Survival ([6]; 0.2 mg/kg/day oral): 0% | Percent Survival ([6]; 0.8 mg/kg/day oral): 10% | Percent Survival ([6]; 3.1 mg/kg/day oral): 20% | Avg. Survival Time ([6]; 12.5 mg/kg/day oral): 14.1 days | Percent Survival ([6]; 12.5 mg/kg/day oral): 40% | number of days to infection vs placebo [6]: statistically significant increases in the number of days to infection | Avg. Survival Time ([6]; 50 mg/kg/day oral): 17.6 days | Percent Survival ([6]; 50 mg/kg/day oral): 60% | survival time vs placebo ([6]; 50 and 12.5 mg/kg): similarly effective | survival vs placebo ([6]; only 50 mg/kg): statistically significant enhanced survival | minimal effective dose (HSV-2): 12.5 to 50 mg/kg/day

Nc1nc2c(ncn2COC(CO)CO)c(=O)[nH]1 [Compound of Formula II, 9-(1,3-Dihydroxy-2-propoxymethyl)guanine]
minimal effective concentration [1]: 1 to 3 µg/mL | minimal effective concentration ([2]; read-out: Minimum Effective Concentration, Strain McIntyre): 3 µg/mL | minimal effective concentration ([2]; read-out: Minimum Effective Concentration, Strain McKrae): 1 to 3 µg/mL | minimal effective concentration ([2]; read-out: Minimum Effective Concentration, Strain S): 1 to 3 µg/mL | minimal effective concentration [2, 7]: 1 to 3 µg/mL | EC50 (HSV-1 PAA ®1): 0.1 µg/mL | minimal effective concentration (Varicella-Zoster virus): 1 to 2 µg/mL | comparative activity (Varicella-Zoster virus): equally active | Avg. Survival Time ([3]; 0.2 mg/kg/day oral): 6.8 days | Percent Survival ([3]; 0.2 mg/kg/day oral): 0% | Avg. Survival Time ([3]; 0.8 mg/kg/day oral): 8.5 days | Percent Survival ([3]; 0.8 mg/kg/day oral): 20% | Avg. Survival Time ([3]; 3.1 mg/kg/day oral): 11.7 days | Percent Survival ([3]; 3.1 mg/kg/day oral): 50% | Avg. Survival Time ([3]; 12.5 mg/kg/day oral): 13.9 days | Percent Survival ([3]; 12.5 mg/kg/day oral): 80% | Avg. Survival Time ([3]; 50 mg/kg/day oral): 16.9 days | Percent Survival ([3]; 50 mg/kg/day oral): 100% | extension of survival time vs placebo ([3]; 50, 12.5, 3.1 and 0.8 mg/kg daily): statistically significant extension of survival time | survival vs placebo ([3]; 50 and 12.5 mg/kg groups): statistically significantly longer | overt toxicity, final weight of test animals ([3]; oral, twice daily for 7 days): no evidence of overt toxicity | relative potency to acycloguanosine ([3]; statistically significant): 50.3 | EC50 (HSV-1 383R1; [8]): 0.06 µg/mL | EC50 (HSV-1 383R1; [9]): 5 µg/mL | EC50 (HSV-1 WT): 0.06 µg/mL | converted to the triphosphate [4]: 93% | Avg. Survival Time ([5]; 0.2 mg/kg/day s.c.): 9.0 days | Percent Survival ([5]; 0.2 mg/kg/day s.c.): 26% | Avg. Survival Time ([5]; 0.8 mg/kg/day s.c.): 9.8 days | Percent Survival ([5]; 0.8 mg/kg/day s.c.): 40% | Avg. Survival Time ([5]; 3.1 mg/kg/day s.c.): 11.8 days | Percent Survival ([5]; 3.1 mg/kg/day s.c.): 46% | Avg. Survival Time ([5]; 12.5 mg/kg/day s.c.): 17.2 days | Percent Survival ([5]; 12.5 mg/kg/day s.c.): 93% | Avg. Survival Time ([5]; 50 mg/kg/day s.c.): 19.5 days | Percent Survival ([5]; 50 mg/kg/day s.c.): 100% | calculated average relative potency to acycloguanosine (95% CI) ([5]; combined results of both mouse experiments): 287.0 | Avg. Survival Time ([6]; 0.2 mg/kg/day oral): 12.1 days | Percent Survival ([6]; 0.2 mg/kg/day oral): 30% | Avg. Survival Time ([6]; 0.8 mg/kg/day oral): 15.1 days | Percent Survival ([6]; 0.8 mg/kg/day oral): 40% | Avg. Survival Time ([6]; 3.1 mg/kg/day oral): 19.1 days | Percent Survival ([6]; 3.1 mg/kg/day oral): 75% | Avg. Survival Time ([6]; 12.5 mg/kg/day oral): 24.7 days | Percent Survival ([6]; 12.5 mg/kg/day oral): 100% | number of days to infection vs placebo [6]: statistically significant increases in the number of days to infection | signs of herpetic infection ([6]; 50 mg/kg, duration of the test): remained free of signs of herpetic infection | Avg. Survival Time ([6]; 50 mg/kg/day oral): 24.7 days | Percent Survival ([6]; 50 mg/kg/day oral): 100% | survival time vs placebo ([6]; 50, 12.5, 3.1 and 0.8 mg/kg): statistically significant increase in survival time | survival rate vs placebo ([6]; 50, 12.5 and 3.1 mg/kg): statistically significantly increased | relative potency to acycloguanosine as measured by survival ([6]; statistically significant): 28.1 | relative potency to acycloguanosine as measured by time to infection ([6]; statistically significant): 4.14 | Mean Survival Time (± SD) (HSV-1 (383R1)): 9.05 (0.80) | efficacy against HSV-1 (383R1) relative to wild type HSV-1 (HSV-1 (383R1)): significantly lower | EC50 (HSV-2 TS6): 15.5 µg/mL | reduction of antiviral activity by thymidine (HSV-1; 20 μg thymidine/ml): greater than 15 fold | EC50 (HSV-1; [10]): 0.8 to 1.6 µg/mL | EC50 (HSV-1; [11]): 25 µg/mL

Nc1nc2c(ncn2COC2COP(=O)(O)OC2)c(=O)[nH]1 (stereo not drawn) [Cyclic Monophosphate, Potassium 9-(1,3-dihydroxy-2-propoxymethyl)guanine cyclic monophosphate]
EC50 (HSV-1 PAA ®1): 3.2 µg/mL | antiviral activity on 3T3 TK^- /TK^+HSV vs 3T3 TK^- cells (HSV-1 383R1; HSV-1 (383R1)): equivalent | EC50 (HSV-1 383R1; [8]): 1 µg/mL | EC50 (HSV-1 383R1; [9]): 1 µg/mL | susceptibility of HSV-1 greater than HSV-1 (383R1) (HSV-1 WT): about 5 fold | EC50 (HSV-1 WT): 0.2 µg/mL | minimal effective dose (HSV-2): 0.8 mg/kg/day | efficacy relative to acyclovir by minimum effective dose (HSV-2; vaginal): consistently more efficacious than acyclovir | Mean Survival Time (± SD) (HSV-1 (383R1)): 13.42 (0.82) | efficacy against HSV-1 (383R1) relative to wild type HSV-1 (HSV-1 (383R1)): equally effective | EC50 (HSV-2 TS6): 0.4 µg/mL | EC50 (HSV-1; [10]): 12.5 µg/mL | EC50 (HSV-1; [11]): 25 to 50 µg/mL
